Reference: patent US20240327364A1, “THERAPEUTIC TARGETING OF GPR68 TO INDUCE FERROPTOSIS” (University Of Maryland, Baltimore, priority 2023, published 2024)

Key:
WM115 = experiment: Agarose drop assay; assay type: cell-based, human; conditions: OGM2 5 μM, 5 days
Protocol: WM115 cells were trypsinized and resuspended at 100,000 cells per mL in low melt agarose. A 10 μl drop of the cell mixture was added to 12-well plate. After solidifying Normal culture media was added with either DMSO 0.5% or OGM2 5 μM. The area around the agarose drop was visualized manually with light microscopy. The cells were incubated for 5 days and visualized. Cells outside of the agarose drop were visualized and quantitated.
FIG. 12A is a schematic of the agarose drop assay. WM115 cells were mixed into a low melt agarose solution and single 10 μL drops were seeded onto cell culture plates. After solidifying, media containing OGM2 (5 μM) or CTL (DMSO […]) was added and wells were observed 5 days later. Immediately after media addition no cells are on the plate outside of the agarose gel in CTL or OGM2. Five days after seeding cells are observed outside of the gel (Black arrows) in CTL but not in OGM2. […] Quantification on the number of cells that escaped from an average of 5 gel drop replicates. FIG. 12B through FIG. 12D show the cells after media addition. No cells are on the plate outside of the agarose gel in CTL or OGM2. Five days after seeding, cells are observed outside of the gel (arrows) in CTL but not in OGM2.

DCAMKL2 = biological target: T1, DCAMKL2 (Homo sapiens, UniProt Q8N568); experiment: KinomeScan; assay type: binding; conditions: read-out: % Control
T1 construct: purchased DiscoveRx (Fremont, CA), KinomeScan service

INK2 = biological target: T2, INK2 (Homo sapiens, UniProt P45984); experiment: KinomeScan; assay type: binding; conditions: read-out: % Control
T2 construct: purchased DiscoveRx

MAPKAPK2 = biological target: T3, MAPKAPK2 (Homo sapiens, UniProt P49137); experiment: KinomeScan; assay type: binding; conditions: read-out: % Control
T3 construct: purchased DiscoveRx (Fremont, CA)

P2Y2 = biological target: T4, P2Y2 (Homo sapiens, UniProt P41231); experiment: GPCR Profiler; assay type: cell-based
T4 construct: host or cells: Chem-1 cells expressing Gα15
T4 sequence (P41231 whole entry, species assumed): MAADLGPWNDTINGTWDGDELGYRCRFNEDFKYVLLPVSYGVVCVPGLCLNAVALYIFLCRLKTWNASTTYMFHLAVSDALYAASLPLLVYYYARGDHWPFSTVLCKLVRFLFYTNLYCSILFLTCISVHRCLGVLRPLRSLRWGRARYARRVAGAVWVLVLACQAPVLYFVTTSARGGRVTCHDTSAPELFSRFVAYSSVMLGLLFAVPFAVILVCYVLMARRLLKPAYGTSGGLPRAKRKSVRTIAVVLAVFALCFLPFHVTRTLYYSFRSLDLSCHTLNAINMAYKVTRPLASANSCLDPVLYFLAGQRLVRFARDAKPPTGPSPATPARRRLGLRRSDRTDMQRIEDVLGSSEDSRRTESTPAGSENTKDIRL

NEK2 = biological target: T5, NEK2 (Homo sapiens, UniProt P51955); experiment: KinomeScan; assay type: binding; conditions: read-out: % Control
T5 construct: purchased DiscoveRx

ACVRLI = biological target: T6, ACVRLI (Homo sapiens, UniProt P37023); experiment: KinomeScan; assay type: binding; conditions: read-out: % Control
T6 construct: purchased DiscoveRx
T6 sequence (P37023 202-492 limits assumed): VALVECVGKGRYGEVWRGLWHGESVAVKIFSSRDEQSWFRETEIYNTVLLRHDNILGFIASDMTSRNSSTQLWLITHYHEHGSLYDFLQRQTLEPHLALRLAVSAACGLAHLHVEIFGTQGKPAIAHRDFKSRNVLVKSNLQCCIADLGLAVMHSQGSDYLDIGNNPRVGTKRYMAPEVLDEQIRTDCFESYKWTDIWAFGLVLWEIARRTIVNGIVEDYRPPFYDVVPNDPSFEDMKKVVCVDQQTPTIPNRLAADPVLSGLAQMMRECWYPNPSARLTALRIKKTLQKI

STK35 = biological target: T7, STK35 (Homo sapiens, UniProt Q8TDR2); experiment: KinomeScan; assay type: binding; conditions: read-out: % Control
T7 construct: purchased DiscoveRx (Fremont, CA)

TRH = biological target: T8, TRH (Homo sapiens, UniProt P34981); experiment: GPCR Profiler; assay type: cell-based
T8 construct: host or cells: Chem-1 cells with Gα15
T8 sequence (P34981 whole entry): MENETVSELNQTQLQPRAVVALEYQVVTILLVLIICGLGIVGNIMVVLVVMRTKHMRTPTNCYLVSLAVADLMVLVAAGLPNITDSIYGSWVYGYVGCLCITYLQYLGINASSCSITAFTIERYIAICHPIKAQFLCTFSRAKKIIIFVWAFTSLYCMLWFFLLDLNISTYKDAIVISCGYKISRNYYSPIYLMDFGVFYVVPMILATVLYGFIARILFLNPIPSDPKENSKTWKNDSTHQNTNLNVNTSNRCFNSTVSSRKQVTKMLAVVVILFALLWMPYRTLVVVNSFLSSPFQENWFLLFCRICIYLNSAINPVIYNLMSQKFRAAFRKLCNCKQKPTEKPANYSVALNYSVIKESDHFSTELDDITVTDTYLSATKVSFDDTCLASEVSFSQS

BMX = biological target: T9, BMX (Homo sapiens, UniProt P51813); experiment: KinomeScan; assay type: binding; conditions: read-out: % Control
T9 construct: purchased DiscoveRx (Fremont, CA)

TGFBR2 = biological target: T10, TGFBR2 (Homo sapiens, UniProt P37173); experiment: KinomeScan; assay type: binding; conditions: read-out: % Control
T10 construct: purchased DiscoveRx (Fremont, CA)
T10 sequence (P37173 23-567): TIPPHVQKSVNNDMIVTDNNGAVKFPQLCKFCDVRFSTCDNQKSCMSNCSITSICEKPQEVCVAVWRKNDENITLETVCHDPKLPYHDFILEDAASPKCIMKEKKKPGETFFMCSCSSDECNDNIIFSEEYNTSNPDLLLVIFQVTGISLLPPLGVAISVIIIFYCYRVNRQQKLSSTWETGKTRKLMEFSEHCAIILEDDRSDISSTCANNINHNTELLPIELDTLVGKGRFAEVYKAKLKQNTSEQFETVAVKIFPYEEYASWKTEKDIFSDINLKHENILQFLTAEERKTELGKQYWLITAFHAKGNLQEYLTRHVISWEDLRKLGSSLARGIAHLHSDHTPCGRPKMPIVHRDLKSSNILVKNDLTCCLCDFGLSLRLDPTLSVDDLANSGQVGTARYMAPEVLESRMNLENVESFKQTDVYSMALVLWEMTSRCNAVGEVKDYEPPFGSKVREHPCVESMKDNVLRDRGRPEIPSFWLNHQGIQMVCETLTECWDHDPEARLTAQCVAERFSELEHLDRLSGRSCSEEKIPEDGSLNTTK

5-HT6 = biological target: T11, 5-HT6 (Homo sapiens, UniProt P50406); experiment: GPCR Profiler; assay type: cell-based
T11 construct: host or cells: Chem-1 cells with promiscuous Gα15
T11 sequence (P50406 whole entry, species assumed): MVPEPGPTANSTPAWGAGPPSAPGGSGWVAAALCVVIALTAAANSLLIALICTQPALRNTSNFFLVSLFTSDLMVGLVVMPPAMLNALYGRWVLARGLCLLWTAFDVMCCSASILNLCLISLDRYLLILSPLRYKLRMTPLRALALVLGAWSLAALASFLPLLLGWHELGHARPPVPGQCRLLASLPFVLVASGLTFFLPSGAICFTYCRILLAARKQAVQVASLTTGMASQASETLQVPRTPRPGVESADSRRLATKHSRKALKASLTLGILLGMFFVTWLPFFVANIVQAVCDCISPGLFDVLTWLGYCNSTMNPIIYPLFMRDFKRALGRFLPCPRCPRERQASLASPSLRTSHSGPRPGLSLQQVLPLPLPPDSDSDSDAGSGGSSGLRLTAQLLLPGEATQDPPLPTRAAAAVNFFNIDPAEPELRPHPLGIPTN

MERTK = biological target: T12, MERTK (Homo sapiens, UniProt Q12866); experiment: KinomeScan; assay type: binding; conditions: read-out: % Control
T12 construct: purchased DiscoveRx (Fremont, CA)

PIK3CA(E545K) = biological target: T13, PIK3CA(E545K) (Homo sapiens, UniProt P42336, E545K); experiment: KinomeScan; assay type: binding; conditions: read-out: % Control
T13 construct: purchased DiscoveRx (Fremont, CA)

PIK3CA = biological target: T14, PIK3CA (Homo sapiens, UniProt P42336); experiment: KinomeScan; assay type: binding; conditions: read-out: % Control
T14 construct: purchased DiscoveRx (Fremont, CA)
T14 sequence (P42336 whole entry): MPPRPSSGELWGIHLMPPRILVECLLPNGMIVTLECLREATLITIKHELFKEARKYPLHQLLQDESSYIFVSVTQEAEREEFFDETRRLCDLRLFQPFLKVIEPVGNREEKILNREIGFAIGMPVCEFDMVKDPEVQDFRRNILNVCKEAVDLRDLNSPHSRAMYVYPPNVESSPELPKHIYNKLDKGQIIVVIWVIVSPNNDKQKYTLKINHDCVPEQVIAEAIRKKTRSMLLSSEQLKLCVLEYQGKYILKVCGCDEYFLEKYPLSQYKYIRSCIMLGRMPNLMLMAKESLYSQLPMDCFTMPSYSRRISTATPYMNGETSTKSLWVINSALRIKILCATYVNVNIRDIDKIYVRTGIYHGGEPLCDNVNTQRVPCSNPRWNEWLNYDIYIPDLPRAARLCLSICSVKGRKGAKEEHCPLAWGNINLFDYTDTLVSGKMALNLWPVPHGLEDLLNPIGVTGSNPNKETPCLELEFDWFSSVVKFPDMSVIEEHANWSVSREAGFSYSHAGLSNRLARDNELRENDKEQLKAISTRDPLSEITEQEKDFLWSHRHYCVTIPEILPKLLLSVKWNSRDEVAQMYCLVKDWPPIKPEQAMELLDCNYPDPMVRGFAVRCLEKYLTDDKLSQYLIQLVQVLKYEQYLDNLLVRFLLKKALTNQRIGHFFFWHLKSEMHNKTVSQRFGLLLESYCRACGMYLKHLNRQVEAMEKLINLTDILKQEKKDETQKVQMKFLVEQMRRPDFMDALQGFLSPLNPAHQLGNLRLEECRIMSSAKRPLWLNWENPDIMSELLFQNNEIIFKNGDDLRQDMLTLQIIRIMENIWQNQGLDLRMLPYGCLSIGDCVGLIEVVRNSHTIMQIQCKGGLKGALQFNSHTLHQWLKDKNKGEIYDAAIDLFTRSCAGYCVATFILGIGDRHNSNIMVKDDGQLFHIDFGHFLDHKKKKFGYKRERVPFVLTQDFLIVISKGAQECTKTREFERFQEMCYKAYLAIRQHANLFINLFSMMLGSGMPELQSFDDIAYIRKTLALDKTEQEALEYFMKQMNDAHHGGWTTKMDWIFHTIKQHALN

RET(V804M) = biological target: T15, RET(V804M) (Homo sapiens, UniProt P07949, V804M); experiment: KinomeScan; assay type: binding; conditions: read-out: % Control
T15 construct: purchased DiscoveRx (Fremont, CA)

CSF1R = CSF1R (Homo sapiens, UniProt P07333); experiment: KinomeScan; assay type: binding; conditions: read-out: % Control
CSF1R, sequence (P07333 20-972): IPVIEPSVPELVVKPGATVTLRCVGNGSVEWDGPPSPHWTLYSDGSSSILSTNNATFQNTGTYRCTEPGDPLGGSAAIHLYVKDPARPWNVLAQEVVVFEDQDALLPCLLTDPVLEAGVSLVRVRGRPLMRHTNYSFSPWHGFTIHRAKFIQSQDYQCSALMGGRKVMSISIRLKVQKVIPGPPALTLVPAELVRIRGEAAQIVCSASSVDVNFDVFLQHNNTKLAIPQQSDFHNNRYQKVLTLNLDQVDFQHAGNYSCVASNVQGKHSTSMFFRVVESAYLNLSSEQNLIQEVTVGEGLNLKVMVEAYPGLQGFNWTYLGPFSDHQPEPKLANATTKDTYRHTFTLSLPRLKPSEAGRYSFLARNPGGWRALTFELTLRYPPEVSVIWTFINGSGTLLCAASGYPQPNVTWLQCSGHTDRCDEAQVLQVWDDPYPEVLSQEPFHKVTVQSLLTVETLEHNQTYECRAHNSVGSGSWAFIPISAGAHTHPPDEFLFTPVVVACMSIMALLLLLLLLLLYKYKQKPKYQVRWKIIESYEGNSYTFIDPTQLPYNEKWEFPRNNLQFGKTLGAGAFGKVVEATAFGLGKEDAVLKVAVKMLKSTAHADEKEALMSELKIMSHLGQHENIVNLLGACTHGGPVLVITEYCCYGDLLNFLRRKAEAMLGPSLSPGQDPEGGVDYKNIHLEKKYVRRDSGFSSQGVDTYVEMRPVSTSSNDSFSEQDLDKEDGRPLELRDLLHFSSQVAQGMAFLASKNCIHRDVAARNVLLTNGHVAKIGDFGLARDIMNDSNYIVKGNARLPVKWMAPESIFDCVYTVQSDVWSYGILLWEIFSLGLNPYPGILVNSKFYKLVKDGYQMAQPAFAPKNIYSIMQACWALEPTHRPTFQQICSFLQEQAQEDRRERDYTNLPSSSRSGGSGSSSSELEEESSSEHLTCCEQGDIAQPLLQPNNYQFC

ERK4 = biological target: T16, ERK4 (Homo sapiens, UniProt P31152); experiment: KinomeScan; assay type: binding; conditions: read-out: % Control
T16 construct: purchased DiscoveRx (Fremont, CA)

[1] = biological target: T17, ABL1(E255K)-phosphorylated (Homo sapiens, UniProt P00519, E255K); experiment: KinomeScan; assay type: binding; conditions: read-out: % Control
T17 construct: purchased DiscoveRx

TESK1 = biological target: T18, TESK1 (Homo sapiens, UniProt Q15569); experiment: KinomeScan; assay type: binding; conditions: read-out: % Control
T18 construct: purchased DiscoveRx (Fremont, CA)

AURKA = biological target: T19, AURKA (Homo sapiens, UniProt O14965); experiment: KinomeScan; assay type: binding; conditions: read-out: % Control
T19 construct: purchased DiscoveRx (Fremont, CA)

PRKD2 = biological target: T20, PRKD2 (Homo sapiens, UniProt Q9BZL6); experiment: KinomeScan; assay type: binding; conditions: read-out: % Control
T20 construct: purchased DiscoveRx (Fremont, CA)

MRCKA = biological target: T21, MRCKA (Homo sapiens, UniProt Q5VT25); experiment: KinomeScan; assay type: binding; conditions: read-out: % Control
T21 construct: purchased DiscoveRx

PRKCE = biological target: T22, PRKCE (Homo sapiens, UniProt Q02156); experiment: KinomeScan; assay type: binding; conditions: read-out: % Control
T22 construct: purchased DiscoveRx (Fremont, CA)

EPHB1 = biological target: T23, EPHB1 (Homo sapiens, UniProt P54762); experiment: KinomeScan; assay type: binding; conditions: read-out: % Control
T23 construct: purchased DiscoveRx (Fremont, CA)

RIOK2 = biological target: T24, RIOK2 (Homo sapiens, UniProt Q9BVS4); experiment: KinomeScan; assay type: binding; conditions: read-out: % Control
T24 construct: purchased DiscoveRx (Fremont, CA)
T24 sequence (Q9BVS4 whole entry): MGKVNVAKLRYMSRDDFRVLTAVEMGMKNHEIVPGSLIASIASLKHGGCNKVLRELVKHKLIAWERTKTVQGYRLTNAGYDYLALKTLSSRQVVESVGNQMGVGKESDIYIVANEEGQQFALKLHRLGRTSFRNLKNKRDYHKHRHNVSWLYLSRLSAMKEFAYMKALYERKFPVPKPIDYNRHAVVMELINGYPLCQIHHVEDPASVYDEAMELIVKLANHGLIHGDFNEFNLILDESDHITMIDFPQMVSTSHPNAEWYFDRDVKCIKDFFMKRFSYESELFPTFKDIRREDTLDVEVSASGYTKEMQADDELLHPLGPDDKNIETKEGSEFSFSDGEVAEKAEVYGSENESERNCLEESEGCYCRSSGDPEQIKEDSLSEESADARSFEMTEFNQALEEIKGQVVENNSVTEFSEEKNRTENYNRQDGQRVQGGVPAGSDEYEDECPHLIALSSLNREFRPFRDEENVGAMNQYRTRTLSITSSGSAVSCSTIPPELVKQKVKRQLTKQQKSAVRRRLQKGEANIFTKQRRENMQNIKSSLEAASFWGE

CDKL1 = CDKL1 (Homo sapiens, UniProt Q00532); experiment: KinomeScan; assay type: binding; conditions: read-out: % Control
FLT3(D835Y) = biological target: T25, FLT3(D835Y) (Homo sapiens, UniProt P36888, D835Y); experiment: KinomeScan; assay type: binding; conditions: read-out: % Control
T25 construct: purchased DiscoveRx (Fremont, CA)

FGFR4 = biological target: T26, FGFR4 (Homo sapiens, UniProt P22455); experiment: KinomeScan; assay type: binding; conditions: read-out: % Control
T26 construct: purchased DiscoveRx (Fremont, CA)

EPHA4 = biological target: T27, EPHA4 (Homo sapiens, UniProt P54764); experiment: KinomeScan; assay type: binding; conditions: read-out: % Control
T27 construct: purchased DiscoveRx (Fremont, CA)

ARK5 = biological target: T28, ARK5 (Homo sapiens, UniProt O60285); experiment: KinomeScan; assay type: binding; conditions: read-out: % Control
T28 construct: purchased DiscoveRx (Fremont, CA)

EP3 = biological target: T29, EP3 (Homo sapiens, UniProt P43115); experiment: GPCR Profiler; assay type: cell-based
T29 construct: host or cells: Chem-1 cells expressing Gα15
T29 sequence (P43115 whole entry): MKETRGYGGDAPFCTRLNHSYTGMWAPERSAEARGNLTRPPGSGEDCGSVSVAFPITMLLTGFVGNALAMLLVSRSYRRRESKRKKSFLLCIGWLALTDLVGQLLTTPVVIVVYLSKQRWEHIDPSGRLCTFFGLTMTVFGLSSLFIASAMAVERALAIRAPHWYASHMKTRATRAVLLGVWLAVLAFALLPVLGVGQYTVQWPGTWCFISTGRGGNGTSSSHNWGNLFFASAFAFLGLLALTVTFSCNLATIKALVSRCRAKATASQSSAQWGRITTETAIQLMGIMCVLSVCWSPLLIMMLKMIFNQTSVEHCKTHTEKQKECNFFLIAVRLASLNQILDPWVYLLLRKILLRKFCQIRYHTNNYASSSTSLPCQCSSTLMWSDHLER

Structure (SMILES): CCc1ccc2c(c1)C1(NN=C(c3ccccc3)S1)C(=O)N2 (stereo not drawn) [OGM2]
- migration out of agarose drop (WM115): migrated significantly less than the vehicle treated cells

Structure (SMILES): CCc1ccc2c(c1)C1(NN=C(c3cccc4ccccc34)S1)C(=O)N2 (stereo not drawn) [OGM1, 5-ethyl-5′-naphthalen-1-ylspiro[1H-indole-3,2′-3H-1,3,4-thiadiazole]-2-one]
- remaining binding at 10 µM (DCAMKL2): 100%
- remaining binding at 10 µM (INK2): 83%
- remaining binding at 10 µM (MAPKAPK2): 100%
- Antagonism (P2Y2; 10 uM): −9
- Agonism (P2Y2; 12.5 uM): 0.1
- remaining binding at 10 µM (NEK2): 78%
- remaining binding at 10 µM (ACVRLI): 100%
- remaining binding at 10 µM (STK35): 100%
- Antagonism (TRH; 10 uM): 1.4
- Agonism (TRH; 12.5 uM): 0.1
- remaining binding at 10 µM (BMX): 100%
- remaining binding at 10 µM (TGFBR2): 100%
- Antagonism (5-HT6; 10 uM): −4.4
- Agonism (5-HT6; 12.5 uM): −0.7
- remaining binding at 10 µM (MERTK): 80%
- remaining binding at 10 µM (PIK3CA(E545K)): 100%
- remaining binding at 10 µM (PIK3CA): 100%
- remaining binding at 10 µM (RET(V804M)): 100%
- remaining binding at 10 µM (CSF1R): 78%
- remaining binding at 10 µM (ERK4): 93%
- remaining binding at 10 µM [1]: 77%
- remaining binding at 10 µM (TESK1): 100%
- remaining binding at 10 µM (AURKA): 100%
- remaining binding at 10 µM (PRKD2): 87%
- remaining binding at 10 µM (MRCKA): 78%
- remaining binding at 10 µM (PRKCE): 68%
- remaining binding at 10 µM (EPHB1): 100%
- remaining binding at 10 µM (RIOK2): 100%
- remaining binding at 10 µM (CDKL1): 88%
- remaining binding at 10 µM (FLT3(D835Y)): 100%
- remaining binding at 10 µM (FGFR4): 100%
- remaining binding at 10 µM (EPHA4): 100%
- remaining binding at 10 µM (ARK5): 80%
- Antagonism (EP3; 10 uM): 6.3
- Agonism (EP3; 12.5 uM): 0.4
